Laboratory results as given in ChEMBL document CHEMBL5634134, “Design, synthesis, and biological evaluation of novel 4,4'-bipyridine derivatives acting as CDK9-Cyclin T1 protein-protein interaction inhibitors against triple-negative breast cancer” (Eur J Med Chem, 2023).
Active and inactive are the calls of the source. The rule behind the calls is not given here.

Legend:
MDA-MB-231 [1] = test: Inhibition of colony formation in human MDA-MB-231 cells assessed as reduction in colony size incubated for 10 days by crystal violet staining based analysis; type: functional, cell-based; settings: dose 12-1000 nM, time 10.0 day
[2] = Toxicity in athymic BALB/c mouse implanted with mouse 4T1 cells assessed as body weight loss at 12.5 mg/kg, ip administered for 14 days; type: organism-based; settings: in vivo, 336 h, time 14 day
MDA-MB-231 [3] = test: Induction of apoptosis in human MDA-MB-231 cells assessed as necrotic cells at 111 nM incubated for 72 hrs by Annexin V-FITC/PI staining based flow cytometry analysis (reference value: 0.49 %); type: functional
[4] = Cytotoxicity against human MRC5 cells assessed as inhibition of cell growth incubated for 72 hrs by MTT assay; type: toxicity, cell-based
MDA-MB-231 [5] = test: Effect on C-Myc protein expression in human MDA-MB-231 cells transfected with shCDK9 at 300 nM by Western blot analysis; type: functional, cell-based
MDA-MB-231 [6] = test: Induction of apoptosis in human MDA-MB-231 cells assessed as early apoptotic cells at 333 nM incubated for 72 hrs by Annexin V-FITC/PI staining based flow cytometry analysis (reference value: 0.66 %); type: functional
MDA-MB-231 [7] = test: Induction of apoptosis in human MDA-MB-231 cells assessed as late apoptotic cells at 111 nM incubated for 72 hrs by Annexin V-FITC/PI staining based flow cytometry analysis (reference value: 4.04 %); type: functional
[8] = Tmax in Sprague-Dawley rat at 50 mg/kg, ip measured afer 24 hrs by LC-MS/MS analysis; type: ADME, organism-based; settings: in vivo
[9] = Toxicity in mouse assessed as animal death at 62.5 to 500 mg/kg, ip administered for 16 days; type: organism-based; settings: in vivo, 384 h, dose 62.5-500 mg/kg, time 16 day
MDA-MB-231 [10] = test: Induction of apoptosis in human MDA-MB-231 cells transfected with shCDK9 assessed as reduction in Bcl-2 expression at 300 nM by Western blot analysis; type: functional, cell-based
MDA-MB-231 [11] = test: Antiproliferative activity against human MDA-MB-231 cells assessed as inhibition of 3D tumor growth at 100 nM incubated for 10 days in presence of olaparib by confocal laser scanning microscopic analysis; type: functional, cell-based; settings: time 10.0 day
[12] = MRT (0 to t) in Sprague-Dawley rat at 50 mg/kg, ip measured afer 24 hrs by LC-MS/MS analysis; type: ADME, organism-based; settings: in vivo
MDA-MB-231 [13] = test: Induction of apoptosis in human MDA-MB-231 cells assessed as necrotic cells at 37 nM incubated for 72 hrs by Annexin V-FITC/PI staining based flow cytometry analysis (reference value: 0.49 %); type: functional
MDA-MB-231 [14] = test: Induction of apoptosis in human MDA-MB-231 cells assessed as late apoptotic cells at 333 nM incubated for 72 hrs by Annexin V-FITC/PI staining based flow cytometry analysis (reference value: 4.04 %); type: functional
MDA-MB-231 [15] = test: Induction of apoptosis in human MDA-MB-231 cells assessed as early apoptotic cells at 37 nM incubated for 72 hrs by Annexin V-FITC/PI staining based flow cytometry analysis (reference value: 0.66 %); type: functional
[16] = Cytotoxicity against HK-2 cells assessed as inhibition of cell growth incubated for 72 hrs by MTT assay; type: toxicity, cell-based; settings: human
MDA-MB-231 [17] = test: Effect on Mcl-1 protein expression in human MDA-MB-231 cells transfected with shCDK9 at 300 nM by Western blot analysis; type: functional, cell-based
[18] = target: Cyclin-dependent kinase 7 (Homo sapiens) (UniProt P50613); test: Binding affinity to CDK7 in human MDA-MB-231 cells asssesed as thermal stabilization at 1 uM incubated for 8 hrs under 45 to 65 degreeC by Western blot analysis; type: cell-based
Sequence of Cyclin-dependent kinase 7 (Homo sapiens) (P50613 whole entry): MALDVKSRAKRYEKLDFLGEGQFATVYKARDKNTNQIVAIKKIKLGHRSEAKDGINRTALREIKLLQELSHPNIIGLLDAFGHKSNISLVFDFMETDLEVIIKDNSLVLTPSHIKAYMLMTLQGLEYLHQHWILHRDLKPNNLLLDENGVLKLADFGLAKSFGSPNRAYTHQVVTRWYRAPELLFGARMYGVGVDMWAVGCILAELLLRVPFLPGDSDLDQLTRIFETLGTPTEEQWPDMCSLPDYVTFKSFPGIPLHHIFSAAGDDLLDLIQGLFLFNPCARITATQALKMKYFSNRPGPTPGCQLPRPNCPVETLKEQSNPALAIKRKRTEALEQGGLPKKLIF

[19] = target: Cyclin-dependent kinase 2 (Homo sapiens) (UniProt P24941); test: Binding affinity to CDK2 in human MDA-MB-231 cells asssesed as thermal stabilization at 1 uM incubated for 8 hrs under 45 to 65 degreeC by Western blot analysis; type: cell-based
[20] = Toxicity in athymic BALB/c mouse implanted with mouse 4T1 cells assessed as liver tissue damage at 12.5 to 25 mg/kg, ip administered for 14 days; type: organism-based; settings: in vivo, 336 h, dose 12.5-25 mg/kg, time 14 day
MDA-MB-231 [21] = test: Inhibition of colony formation in human MDA-MB-231 cells assessed as reduction in colony number at >=111 nM incubated for 10 days by crystal violet staining based analysis relative to control; type: functional; settings: time 10 day
[22] = target: Cyclin-dependent kinase 7/ cyclin H (Homo sapiens) (UniProt P51946+P50613); test: Inhibition of Flag-tagged CDK7(unknown origin)/Cyclin H (unknown origin) transfected in HEK293T cells at 1 to 3 uM incubated for 8 hrs by co-immunoprecipitation assay; type: cell-based; settings: dose 1-3 µM
MDA-MB-231 [23] = test: Inhibition of RNA Polymerase II CTD phosphorylation at ser2 residue in human MDA-MB-231 cells at 1 uM incubated for 24 hrs by Western blotting analysis; type: cell-based
4T1 [24] = test: Antitumor activity against mouse 4T1 cells implanted in athymic BALB/c mouse assessed as reduction in tumor volume at 12.5 to 25 mg/kg, ip administered for 14 days; type: functional, organism-based; settings: dose 12.5-25 mg/kg, time 14.0 day
4T1 [25] = test: In vivo inhibition of RNA Pol II phosphorylation at ser2 in athymic BALB/c mouse implanted with mouse 4T1 cells at 12.5 to 25 mg/kg, ip administered once daily for 14 days by Western blot analysis; type: functional, organism-based; settings: dose 12.5-25 mg/kg, time 14.0 day
MDA-MB-231 [26] = test: Induction of apoptosis in human MDA-MB-231 cells transfected with shCDK9 assessed as increase in cleaved PARP expression at 300 nM by Western blot analysis; type: functional, cell-based
MDA-MB-231 [27] = test: Inhibition of cell invasion in human MDA-MB-231 cells at 1000 nM incubated for 24 hrs by crystal violet staining based transwell matrix penetration assay; type: functional
MDA-MB-231 [28] = test: Induction of apoptosis in human MDA-MB-231 cells assessed as late apoptotic cells at 1000 nM incubated for 72 hrs by Annexin V-FITC/PI staining based flow cytometry analysis (reference value: 4.04 %); type: functional
[29] = AUC (0 to t) in Sprague-Dawley rat at 50 mg/kg, ip measured afer 24 hrs by LC-MS/MS analysis; type: ADME, organism-based; settings: in vivo
[30] = AUC (0 to infinity) in Sprague-Dawley rat at 50 mg/kg, ip measured afer 24 hrs by LC-MS/MS analysis; type: ADME, organism-based; settings: in vivo
[31] = Toxicity in athymic BALB/c mouse implanted with mouse 4T1 cells assessed as heart tissue damage at 12.5 to 25 mg/kg, ip administered for 14 days; type: organism-based; settings: in vivo, 336 h, dose 12.5-25 mg/kg, time 14 day
MDA-MB-231 [32] = test: Inhibition of colony formation in human MDA-MB-231 cells at 20 nM incubated for 10 days by crystal violet staining based analysis; type: functional, cell-based; settings: time 10.0 day
4T1 [33] = test: Antitumor activity against mouse 4T1 cells implanted in athymic BALB/c mouse assessed as tumor inhibition rate at 25 mg/kg, ip administered for 14 days relative to control; type: functional; settings: 4T1, 336 h, time 14 day
MDA-MB-231 [34] = test: Synergistic antiproliferative activity against human MDA-MB-231 cells assessed as inhibition of cell growth incubated for 48 hrs in presence of varying concentrations of olaparib by MTT assay; type: functional, cell-based; settings: dose 0.01-4 µM

COc1ccc(C(=O)Nc2cc(-c3ccnc(N4CCC(O)CC4)c3)ccn2)cc1
inhibition (MDA-MB-231 [1]): Dose-Dependent Effect
Activity [2]: Non-Toxic
Activity (MDA-MB-231 [3]): 0.17%
IC50 at 72 h [4]: 335 nM
Activity (MDA-MB-231 [5]): inactive
Activity (MDA-MB-231 [6]): 20.4%
Activity (MDA-MB-231 [7]): 34.93%
Tmax [8]: 30 min
Activity [9]: Non-Toxic
Activity (MDA-MB-231 [10]): inactive
Activity (MDA-MB-231 [11]): Active
MRT last at 24 h [12]: 75.6 min
Activity (MDA-MB-231 [13]): 0.17%
Activity (MDA-MB-231 [14]): 48.6%
Activity (MDA-MB-231 [15]): 3.14%
IC50 at 72 h [16]: 481 nM
Activity (MDA-MB-231 [17]): inactive
Activity [18]: inactive
Activity [19]: inactive
Activity [20]: Non-Toxic
inhibition (INH) (MDA-MB-231 [21]): ~100%
inhibition [22]: inactive
inhibition (MDA-MB-231 [23]): Active
Activity (4T1 [24]): Active
inhibition (4T1 [25]): Active
Activity (MDA-MB-231 [26]): inactive
inhibition (MDA-MB-231 [27]): Active
Activity (MDA-MB-231 [28]): 71.6%
AUC(0-t) at 24 h [29]: 17000 ng·h/mL
AUC(0-inf) [30]: 17000 ng·h/mL
Activity [31]: Non-Toxic
inhibition (MDA-MB-231 [32]): inactive
inhibition in vivo at 25 mg/kg (4T1 [33]): 86.1%
Activity (MDA-MB-231 [34]): Dose-Dependent Effect
